From ChEMBL document CHEMBL2074042, “beta-lactam antibiotics as substrates for OCTN2, an organic cation/carnitine transporter” (J Biol Chem, 2000) come the findings set out here.

Data set [1] concerns the target T1, Organic cation/carnitine transporter 2 (Homo sapiens, UniProt O76082).
T1 sequence (O76082 whole entry): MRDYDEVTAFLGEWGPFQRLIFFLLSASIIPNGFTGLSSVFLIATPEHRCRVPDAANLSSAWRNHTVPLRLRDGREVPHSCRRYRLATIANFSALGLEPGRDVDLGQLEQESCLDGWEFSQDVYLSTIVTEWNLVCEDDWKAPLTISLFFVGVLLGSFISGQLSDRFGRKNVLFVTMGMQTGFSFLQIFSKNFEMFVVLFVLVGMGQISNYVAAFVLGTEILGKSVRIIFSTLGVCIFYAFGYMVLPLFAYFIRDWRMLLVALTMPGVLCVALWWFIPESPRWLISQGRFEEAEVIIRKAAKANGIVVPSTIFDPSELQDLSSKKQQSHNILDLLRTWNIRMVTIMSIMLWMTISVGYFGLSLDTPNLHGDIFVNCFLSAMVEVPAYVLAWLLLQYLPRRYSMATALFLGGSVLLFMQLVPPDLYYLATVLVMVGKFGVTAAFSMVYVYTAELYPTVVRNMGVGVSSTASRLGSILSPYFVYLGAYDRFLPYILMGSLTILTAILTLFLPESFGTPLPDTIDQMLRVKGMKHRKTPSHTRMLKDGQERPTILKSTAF
Kind of data set: TP_TRANSPORTER: inhibition of Carnitine uptake (Carnitine: 0.02 uM, Cyclacillin: 2500 uM) in OCTN2-expressing HeLa cells. The format is functional, cell-based.

Data set [2] addresses T1, Organic cation/carnitine transporter 2. Kind of data set: TP_TRANSPORTER: inhibition of Carnitine uptake (Carnitine: 0.02 uM, PCG: 2500 uM) in OCTN2-expressing HeLa cells. It is filed as functional, cell-based.

On to `CC1(C)S[C@@H]2[C@H](NC(=O)C3(N)CCCCC3)C(=O)N2[C@H]1C(=O)O` [CYCLACILLIN], for which, in data set [1], the Activity result is “is not an inhibitor [-]”.
Take `CC1(C)S[C@@H]2[C@H](NC(=O)Cc3ccccc3)C(=O)N2[C@H]1C(=O)O` [PENICILLIN G]: the Activity result in data set [2] was “is not an inhibitor [-]”.
